Our source for the GI50 and TGI values is PubChem BioAssay (NCI).

Several values for one entry are separate records, joined by “and”; a condition that tells them apart may be missing. Equal entries are not always repeated.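 Each compound was tested at five concentrations against cells in 96-well plates for 48 hours. The concentration for 50% growth inhibition is given as GI50. TGI: total growth inhibition.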 Some results are limits rather than exact numbers.

Holding throughout (assay): growth of human tumour cells (NCI), 48 h
In assay [1] the test system is HCT-116 colon.
Assay [2] concerns K-562 leukemia.
Assay [3] has as its system NCI-H23 lung.
Assay [4] has as its system NCI/ADR-RES ovarian.
For assay [5], the system named is OVCAR-5 ovarian.
For assay [6], the system named is OVCAR-8 ovarian.
For assay [7], the system named is SK-MEL-5 melanoma.
Assay [8] deals with SR leukemia.
Assay [9] concerns SW-620 colon.
In assay [10] the test system is TK-10 renal.

For `Cc1nc(N)sc1C(=O)Nc1cc(C(=O)NCCCN(C)C)n(C)c1`, the GI50 in assay [1], in [2], in assay [3], in assay [4], in assay [5] and in assay [6] was > 100000 nM in each case. Moreover, the GI50 in assay [7], in assay [8], in [9] and in assay [10] was > 100000 nM throughout. For the same compound, the TGI in assay [1], in [2], in assay [3], in assay [4], in assay [5] and in assay [6] was > 100 µM each time. The TGI in assay [7] is > 100000 nM; in assay [8] it was > 100000 nM; in assay [9], > 100 µM; in assay [10], > 100 µM.

Turning to `O=C(OCc1ccc2c(Cl)cc(Cl)c(O)c2n1)c1cc2ccccc2[nH]1`, the GI50 in assay [1] is 174 nM; in assay [2] it was 336 nM; in assay [3], 1490 nM; in assay [4] it was 953 nM; in assay [5], 650 nM; in assay [6] it was 818 nM. Besides, the GI50 in assay [7] was 1330 nM; in assay [8], 324 nM; in assay [9], 241 nM; in [10], 553 nM. Besides, the TGI in assay [1] was 0.372 µM; in assay [2], 10.2 µM; in assay [3], 3.2 µM; in [4], 5.22 µM; in assay [5], 1.97 µM; in [6], 3.05 µM. The TGI is 2630 nM in assay [7], 1920 nM in [8], 0.613 µM in assay [9] and 1.47 µM in [10].

As to `CCCCCCCC(=O)SCC/C=C/[C@@H]1CC(=O)NCc2nc(co2)C2=N[C@@](C)(CS2)C(=O)N[C@@H](C(C)C)C(=O)O1`, the GI50 in assay [1] is 12.6 nM; in [2], 39.8 nM; in [3], 41.1 nM; in assay [4], 606 nM; in [5] it was 8.49 nM; in [6], 12.4 nM. Also, the GI50 in assay [7] is 17.9 nM; in [8], 16.4 nM; in [9] it was 42.3 nM; in [10], 11.7 nM. For the same compound, the TGI in assay [1] is 1.14 µM; in assay [2] it was > 50 µM; in [4] it was > 31.6 µM; in assay [5] it was > 50 µM; in assay [6], > 50 µM; in assay [7], 77.6 nM. Moreover, the TGI is > 50000 nM in [8], 1.9 µM in [9] and 0.126 µM in assay [10].

`COc1ccc(C(=O)c2cc3c(N)c(C(=O)Nc4cccc(Cl)c4C)sc3nc2C)cc1`: the GI50 was 98.9 nM in [1]; 90.1 nM in assay [2]; 173 nM in assay [3]; 86 nM in assay [4]; 266 nM in assay [5]; 125 nM in assay [6]. For the same compound, the GI50 in assay [7] is 109 nM; in assay [8], 61.3 nM; in assay [9] it was 105 nM; in assay [10] it was > 25000 nM. Besides, the TGI in assay [1], in [2], in assay [3], in assay [4], in assay [5] and in [6] was > 25 µM throughout. In addition, the TGI was 2450 nM in assay [7], 511 nM in assay [8], > 25 µM in [9] and > 25 µM in assay [10].

`CN(CCCl)c1ccc(/C=C/C2=[N+](C)c3ccccc3C2(C)C)cc1`: the GI50 is 307 nM in assay [1]; 491 nM in assay [2]; 434 nM in assay [3]; 65800 nM in assay [4]; 3710 nM in assay [5]; 353 nM in assay [6]. In addition, the GI50 in assay [7] is 532 nM; in assay [8] it was 332 nM; in [9], 494 nM; in assay [10] it was 2370 nM. For the same compound, the TGI is 12.2 µM in [1]; 83.5 µM in [2]; 11 µM in [3]; > 100 µM in assay [4]; 17.1 µM in assay [5]; 12 µM in assay [6]. For the same compound, the TGI in [7] stood at 2030 nM; in assay [8] it was 12500 nM; in assay [9], 14 µM; in [10], 14.9 µM.

As for `Nc1nc(N)c2nc(CNc3ccc(C(=O)NC(CCCNC(=O)c4ccccc4C(=O)O)C(=O)O)cc3)cnc2n1` (configuration not stated), the GI50 is 0.28 nM in assay [1]; < 24.2 nM and 0.381 nM in assay [2]; 4.01 nM in assay [3]; 2.73 nM in [4]; 1.96 nM in assay [5]; 1.5 nM in assay [6]. Besides, the GI50 in assay [7] was 5.77 nM; in [8], 0.424 nM; in assay [9] it was 0.866 nM; in assay [10], 31 nM. For the same compound, the TGI in [1], in assay [2], in assay [3], in [4], in assay [5] and in [6] was > 100 µM throughout. Besides, the TGI is > 100000 nM in [7], > 100000 nM in [8], > 100 µM in assay [9] and > 100 µM in [10].

Take `COc1ccc(-c2cc(-c3cc(OC)c(OC)c(OC)c3)c(C#N)c(N3CCOCC3)n2)cc1O`: the GI50 in assay [1] is 3360 nM; in [2], 2470 nM; in [3], 26700 nM; in assay [4], 1850 nM; in assay [6], 6110 nM; in [7], 3300 nM. Further, the results for the GI50 in assay [8], in assay [9] and in assay [10] were 1100 nM, 3870 nM and > 59800 nM, respectively. The TGI in assay [1] was > 83.1 µM; in assay [2] it was > 24.1 µM; in assay [3], > 100 µM; in assay [4], > 100 µM; in assay [5], > 100 µM; in [6], > 100 µM. In addition, the TGI is > 75200 nM in assay [7], > 100000 nM in assay [8], > 100 µM in assay [9] and > 100 µM in assay [10].

Regarding `CNC1C(O)C(OC2C(N)CC(N)C(OC3OC(C(C)O)C(O)C(O)C3N)C2O)OCC1(C)O` (configuration not stated), the TGI in assay [1], in assay [2], in assay [3], in assay [4], in assay [5] and in assay [6] was > 100 µM throughout. The TGI in [7] was > 100000 nM; in [8] it was > 100000 nM; in [9], > 100 µM; in [10], > 100 µM.

On to `CC1=C[S+](c2ccccc2)c2cccc3cc4ccccc4c1c23` (configuration not stated), for which the GI50 in assay [1] was 65.5 nM; in [2] it was 71.2 nM; in [3] it was 1090 nM; in [4], 3870 nM; in assay [5] it was 1110 nM; in [6], 158 nM. Also, the GI50 in assay [7] was 247 nM; in [8] it was 297 nM; in assay [9], 321 nM; in assay [10] it was 604 nM. Also, the TGI in [2] is 3.85 µM; in assay [3] it was 2.86 µM; in assay [4] it was > 55.3 µM; in [5] it was 2.52 µM; in assay [6], 3.73 µM; in [7], 776 nM. Also, the TGI amounted to 2140 nM in assay [8], 1.65 µM in assay [9] and 2.38 µM in assay [10].

As for `CCc1nc(Cl)nc(Cl)c1Cl`, the TGI in [1] was 4.62 µM; in assay [2], 3.62 µM; in [3], 5.9 µM; in assay [4] it was 9.41 µM; in assay [5], 9.81 µM; in [6], 5.34 µM. Further, the TGI in assay [7] was 7710 nM; in assay [8] it was 444 nM; in assay [9], 5.17 µM; in assay [10], 21.2 µM.

For `COc1cnc2c(c1)C(=O)c1c-2n(CCCN2CCCC2)c(=O)c2cc(F)ccc12`, the GI50 in assay [1] is 153 nM; in [2], 263 nM; in assay [3] it was 331 nM; in assay [4], 467 nM; in [5] it was 410 nM; in assay [6] it was 206 nM. Also, the GI50 is 309 nM in [7], 144 nM in assay [8], 199 nM in assay [9] and 460 nM in assay [10]. Further, the TGI amounted to 0.663 µM in [1]; 1.55 µM in assay [2]; 2.4 µM in [3]; 3.19 µM in [4]; 3.23 µM in assay [5]; 1.05 µM in assay [6]. The TGI turned out to be 1290 nM in assay [7], 1260 nM in [8], 2.27 µM in assay [9] and 2.13 µM in assay [10].

As to `COc1ccccc1S(=O)(=O)Nc1ccc2c(c1)CN(C)C(=O)N2`, the GI50 in assay [1] was 4600 nM and 4380 nM; in assay [2] it was 8640 nM and 5180 nM; in assay [3], 7030 nM and 12800 nM; in assay [4], 29500 nM and 33300 nM; in assay [5], 9500 nM and 11700 nM; in assay [6], 10100 nM and 10800 nM. Moreover, the GI50 in assay [7] was 3880 nM and 4420 nM; in [8] it was 2400 nM and 3490 nM; in [9], 20300 nM and 14500 nM; in assay [10], 2140 nM and 1450 nM. Also, the TGI in [1], in [2], in assay [3], in [4], in assay [5] and in assay [6] was > 100 µM each time. Besides, the TGI in assay [7] is > 100000 nM; in assay [8], > 100000 nM; in assay [9], > 100 µM; in assay [10] it was > 95.5 µM and 50 µM.
